According to patent US7842711B2, “Indazolecarboxamide derivatives for the treatment and prevention of malaria” (Sanofi-Aventis, priority 2004, dated 2010):
Where a name gives a salt, the structure may show the parent alone. Read-outs that look alike come from different tables or passages of the source.

Assays:
[1] = test system: P. falciparum strain FcM29 (highly resistant to chloroquine); assay: antimalarial activity assay, radioactive micromethod of Desjardins (tritiated hypoxanthine incorporation), strain FcM29; assay type: cell-based; settings: Plasmodium falciparum, Erythrocyte, read-out: IC50 (concentration of the compound required to inhibit the parasite growth by 50%)
Protocol: Two strains of P. falciparum are used, the origin of which is Colombia (FcB1, strain moderately resistant to chloroquine) and Cameroon (FcM29, strain highly resistant to chloroquine). These strains of P. falciparum are cultured continuously in human red blood cells according to the method of Trager and Jensen (W. Trager, J. Jensen, Science, 1976, 193, 673-675): the parasites are maintained in human red blood cells (O±), diluted to 2% parasiteamia in an RPMI 1640 medium supplemented with 25 mM of Hepes, 24 mM of NaHCO3 and 2 mM of L-glutamine, and supplemented with 5% of human serum of all groups. The parasites are incubated at 37° C. in a humid atmosphere and at 5% CO2.
The antimalarial activity assays are carried out according to the radioactive micromethod of Desjardins (R. E. Desjardins, C. J. Canfield, J. D. Haynes, J. D. Chulay, Antimicrob. Agents Chemother., 1979, 16, 710-718). Each molecule is tested in triplicate. The assays are carried out in 96-well microplates. The strains of P. falciparum are cultured in solutions of RPMI 1640 supplemented with 5% of human serum with a 2% haematocrit and a 1.5% parasitaemia. For each assay, the parasites are incubated with decreasing concentrations of compounds of formula (I) for 48 h at 37° C. in a humid atmosphere and at 5% CO2.
The first dilution of the test compound is prepared at 1 mg/ml in dimethyl sulphoxide. The dilution range for the successive daughter solutions is also prepared in dimethyl sulphoxide. Each daughter dilution is subsequently diluted to 1/50 in RPMI 1640 supplemented with 5% of human serum, all the dilutions being prepared at 37° C. These dilutions are then added to the parasites in culture in the microplates. After addition of the test compound, the parasites are in culture in RPMI 1640 containing 5% of human serum and 1% of dimethyl sulphoxide. The parasite growth is measured by the incorporation of tritiated hypoxanthine (added 24 h after the beginning of exposure to the test compound) compared with incorporation in the absence of the test compound (taken as 100%). The IC50 values (concentration of the compound required to inhibit the parasite growth by 50%) are determined by plotting the percentage inhibition as a function of the log of the dose by means of the GraphPad Prism 4® processing software (GraphPad software, Inc., 5755 Oberlin Drive, # 110, San Diego, Calif. 92121, USA).

[2] = strain FcM29, 48 h incubation in human red blood cells, tritiated hypoxanthine incorporation

Row | melting point [°C] | IC50 [1, 2] [nM] | SMILES | IC50 ([1]; 48 h) [nM]
1 | > 250 | 600 | O=C(Nc1ccncc1)c1n[nH]c2ccc(-c3cncc4ccccc34)cc12 [Compound No. 3, N-(Pyridin-4-yl)-5-isoquinolin-4-yl-1H-indazole-3-carboxamide] | –
2 | > 250 | 130 | O=C(Nc1ccncc1)c1n[nH]c2ccc(-c3cncc4[nH]ccc34)cc12 [Compound No. 10, N-(Pyridin-4-yl)-5-(1H-pyrrolo[2,3-c]pyridin-4-yl)-1H-indazole-3-carboxamide] | –
3 | > 250 | 800 | O=C(Nc1ccncc1)c1n[nH]c2ccc(-c3cn[nH]c3)cc12 [Compound No. 11, 5-(1H-Pyrazol-4-yl)-N-(pyridin-4-yl)-1H-indazole-3-carboxamide] | –
4 | – | – | CCNCc1cccc(NC(=O)c2n[nH]c3ccc(-c4cncc5ccccc45)cc23)c1 [Compound No. 14, N-{3-[(Ethylamino)methyl]phenyl}-5-isoquinolin-4-yl-1H-indazole-3-carboxamide dihydrochloride] | 272
5 | > 250 | 800 | O=C(Nc1ccncc1)c1n[nH]c2ccc(-c3ccc(Cl)nc3)cc12 [compound 12, 5-(6-chloropyridin-3-yl)-N-pyridin-4-yl-1H-indazole-3-carboxamide] | –
6 | > 250 | 406 | CCNCc1cccc(NC(=O)c2n[nH]c3ccc(-c4cncc5[nH]ccc45)cc23)c1 [compound 21, N-{3-[(ethylamino)methyl]phenyl}-5-(1H-pyrrolo[2,3-c]pyridin-4-yl)-1H-indazole-3-carboxamide] | –

Row | SMILES | melting point [°C] | IC50 [1, 2] [nM] | IC50 ([1]; 48 h) [nM]
7 | CCNCc1cccc(NC(=O)c2n[nH]c3ccc(-c4cncc5ccccc45)cc23)c1 (as salt: HCl) [Compound No. 14, N-{3-[(Ethylamino)methyl]phenyl}-5-isoquinolin-4-yl-1H-indazole-3-carboxamide dihydrochloride] | > 135 | – | –
